Assay results taken from patent US20240173289A1, “USE OF OXYMETHYL-MODIFIED DERIVATIVE OF QUERCETIN IN PREPARATION OF DRUG FOR INHIBITING TUMOR CELL PROLIFERATION” (ZHEJIANG UNIVERSITY, priority 2021, published 2024).

Tests used:
HepG2 cells = experiment: scratch test, metastasis capacity; format: cell-based; conditions: 1 mg/L, after 1 d (24 h) of incubation
Procedure: HepG2 cells with a cell density of 5×10^5/mL were plated on a 6-well plate (1 mL per well), added to a DMEM medium containing 10% fetal calf serum, and cultured overnight to form a monolayer of cells. A horizontal scratch was scratched on the monolayer of cells with a pipette tip of 200 μL, washed with PBS 3 times, added into a DMEM medium containing 10% fetal bovine serum, and then added with 1 mg/L of a quercetin 3,3′-dimethyl ether solution, while DMSO was used as a solvent control, and then incubated for 24 h.

[1] = tested on: breast cancer cells MDA-MB-231; experiment: scratch closure test; format: cell-based; conditions: 2 mg/L, 24 h
Procedure: (§1) Cells with a certain density (6×10^5 cells per mL for AGS, T47D, Caco2, BCPAP, GES, HUVEC; 5×10^5 cells per mL for HepG2, MDA-MB-231, BGC-823, A549, PC3, L02; 3×10^5 cells per mL for 143B, HOS, U2, SGC-7901, Hela, BV-2; and 1.8×10^6 cells per mL for WI-38) were spread on a 6-well plate (1 mL per well), added with a DMEM medium containing 10% fetal calf serum, and cultured overnight to form a monolayer of cells. A horizontal scratch was scratched on the monolayer of cells with a pipette tip of 200 μL, washed with PBS 3 times, added into a DMEM medium containing 10% fetal bovine serum, and then added with corresponding dosages of a quercetin 3,3′-dimethyl ether solution (the dosage of osteosarcoma cells was 143B: 4 mg/L, HOS: 4 mg/L, U2: 10 mg/L; the dosage of breast cancer cells was MDA-MB-231: 2 mg/L, T47D: 3 mg/L; the dosage of gastric cancer cells was SGC7901: 6 mg/L, BGC823: 5 mg/L, AGS: 3 mg/L; the dosage of cervical cancer Hela cells was 2 mg/L; the dosage of lung cancer cell A549 was 3 mg/L; the dosage of intestinal cancer cells Caco2 was 4 mg/L; the dosage of mouse glioma BV2 was 4 mg/L; the dosage of human prostate cancer cells PC3 was 6 mg/L; and the dosage of human thyroid cancer cells BCPAP was 2 mg/L), while DMSO was used as a solvent control, and then incubated for 24 h. A scratch width and a measurement width were determined under a microscope, and a scratch closure ratio was calculated as follows: scratch closure ratio=(scratch width−measurement width)/scratch width×100%. Scratch inhibition ratio=(scratch closure ratio of control group−scratch closure ratio of treatment group)/scratch closure ratio of control group×100%.

breast cancer cells T47D = experiment: scratch closure test; format: cell-based; conditions: 3 mg/L, 24 h
Procedure: as §1

[2] = tested on: cervical cancer Hela cells; experiment: scratch closure test; format: cell-based; conditions: 2 mg/L, 24 h
Procedure: as §1

gastric cancer cells AGS = experiment: scratch closure test; format: cell-based; conditions: 3 mg/L, 24 h
Procedure: as §1

[3] = tested on: gastric cancer cells BGC-823; experiment: scratch closure test; format: cell-based; conditions: Homo sapiens, BGC823, 5 mg/L, 24 h, versus control group, read-out: inhibition rate of scratch closure
Procedure: as §1

[4] = tested on: gastric cancer cells SGC-7901; experiment: scratch closure test; format: cell-based; conditions: 24 h
Procedure: as §1

[5] = tested on: human prostate cancer cells PC3; experiment: scratch closure test; format: cell-based; conditions: 6 mg/L, 24 h
Procedure: as §1

[6] = tested on: human thyroid cancer cells BCPAP; experiment: scratch closure test; format: cell-based; conditions: 2 mg/L, 24 h
Procedure: as §1

[7] = tested on: intestinal cancer cells Caco2; experiment: scratch closure test; format: cell-based; conditions: 24 h
Procedure: as §1

lung cancer cell A549 = experiment: scratch closure test; format: cell-based; conditions: Homo sapiens, 3 mg/L, 24 h, versus control group, read-out: inhibition rate of scratch closure
Procedure: as §1

mouse glioma BV2 = experiment: scratch closure test; format: cell-based; conditions: 4 mg/L, 24 h
Procedure: as §1

osteosarcoma cells 143B = experiment: scratch closure test; format: cell-based; conditions: Homo sapiens, 4 mg/L, 24 h, versus control group, read-out: inhibition rate of scratch closure
Procedure: as §1

osteosarcoma cells HOS = experiment: scratch closure test; format: cell-based; conditions: 4 mg/L, 24 h, versus control group, read-out: inhibition rate of scratch closure
Procedure: as §1

osteosarcoma cells U2 = experiment: scratch closure test; format: cell-based; conditions: 10 mg/L, 24 h
Procedure: as §1

[8] = tested on: HepG2 transplanted tumors; experiment: proliferation of HepG2 transplanted tumors in nude mice in vivo; design: species or system BALB/c nude mice; conditions: 50 mg/kg bw·d intraperitoneal
Procedure: BALB/c nude mice (5 to 6 weeks old), weighing 19 g to 22 g, were purchased from Shanghai Experimental Animal Center, Chinese Academy of Sciences. HepG2 cells were collected in a serum-free DMEM medium to make a cell suspension, and then the cell suspension was injected into an underarm area of each mouse, approximately 2.0×10^6 cells, one site per mouse. All mice were bred in the Experimental Animal Center of Zhejiang University, under the environment of 23° C. to 25° C., humidity 50% to 60%, and cycle of 12 h light illumination/dark 12 h. After tumor formation, the mice were randomly divided into 3 groups with 7 mice in each group. The model group was given saline by intraperitoneal injection; the positive drug group was given tegafur at 10 mg/kg bw·d by intraperitoneal injection; the treatment group was intraperitoneally injected with the quercetin 3,3′-dimethyl ether at 50 mg/kg bw·d. According to the change of tumor volume, after the tumor formed, intraperitoneal injection was conducted every 1 d to 2 d, the tumor volume was measured, and the body weight of the mice was weighed. When there was a significant difference in tumor volume between different treatment groups, the mice were sacrificed by cervical dislocation, and the tumor tissue was carefully peeled off, weighed, and calculated. The formulas were: tumor formation rate (%)=(number of tumor-forming mice in treatment group/number of tumor-forming mice in inoculation group)×100; tumor inhibition rate (%)=(average tumor weight in control group (g)−average tumor weight in administration group (g))/average tumor weight in control group (g)×100. Serum, liver, spleen, and kidney were collected and weighed.

[9] = Homo sapiens, versus control group, read-out: inhibition rate of scratch closure
[10] = versus control group, read-out: inhibition rate of scratch closure

**Q.** With COc1cc(-c2oc3cc(O)cc(O)c3c(=O)c2OC)ccc1O [Quercetin 3,3′-dimethyl ether, quercetin 3,3′-dimethyl ether] as the compound, how does the “intercellular space (scratch) versus control group” value (HepG2 cells) read?
**A.** significantly higher

**Q.** And the “Treatment scratch closed %” value [1]?
**A.** 16.72 ± 3.87 %

**Q.** And the inhibition at 2 µg/mL [1, 9]?
**A.** 82%

**Q.** And the “Treatment scratch closed %” value (breast cancer cells T47D)?
**A.** 31.83 ± 6.01 %

**Q.** And the inhibition at 3 µg/mL (breast cancer cells T47D; [9])?
**A.** 64.1%

**Q.** And the “Treatment scratch closed %” value [2]?
**A.** 37.42 ± 1.62 %

**Q.** What about the inhibition at 2 µg/mL [2, 9] of the same compound?
**A.** 54%

**Q.** What about the “Treatment scratch closed %” value (gastric cancer cells AGS) of the same compound?
**A.** 31.67 ± 3.39 %

**Q.** What about the inhibition at 3 µg/mL (gastric cancer cells AGS; [10]) of the same compound?
**A.** 60.9%

**Q.** And the inhibition at 5 µg/mL [3]?
**A.** 73.7%

**Q.** What about the “Treatment scratch closed %” value ([4]; 6 mg/L) of the same compound?
**A.** 25.05 ± 10.1 %

**Q.** And the inhibition at 6 µg/mL ([4]; Homo sapiens, SGC7901, 6 mg/L, versus control group, read-out: inhibition rate of scratch closure)?
**A.** 72%

**Q.** What about the “Treatment scratch closed %” value [5] of the same compound?
**A.** 24.76 ± 5.55 %

**Q.** And the inhibition at 6 µg/mL [5, 9]?
**A.** 70.9%

**Q.** What about the “Treatment scratch closed %” value [6] of the same compound?
**A.** 30.31 ± 5.21 %

**Q.** And the inhibition at 2 µg/mL [6, 9]?
**A.** 64.7%

**Q.** What about the “Treatment scratch closed %” value ([7]; 4 mg/L) of the same compound?
**A.** 28.37 ± 10.21 %

**Q.** What about the inhibition at 4 µg/mL ([7]; Homo sapiens, Caco-2, 4 mg/L, versus control group, read-out: inhibition rate of scratch closure) of the same compound?
**A.** 66.6%

**Q.** What about the inhibition at 3 µg/mL (lung cancer cell A549) of the same compound?
**A.** 69.6%

**Q.** What about the “Treatment scratch closed %” value (mouse glioma BV2; BV-2) of the same compound?
**A.** 21.17 ± 8.55 %

**Q.** And the inhibition at 4 µg/mL (mouse glioma BV2; Mus musculus, BV2, versus control group, read-out: inhibition rate of scratch closure)?
**A.** 75.2%

**Q.** And the inhibition at 4 µg/mL (osteosarcoma cells 143B)?
**A.** 54.3%

**Q.** What about the inhibition at 4 µg/mL (osteosarcoma cells HOS) of the same compound?
**A.** 57.6%

**Q.** And the “Treatment scratch closed %” value (osteosarcoma cells U2)?
**A.** 27.67 ± 6.81 %

**Q.** And the inhibition at 10 µg/mL (osteosarcoma cells U2; [10])?
**A.** 70.5%

**Q.** What about the “tumor weight, lower than that of the control group” value [8] of the same compound?
**A.** 52.19%

**Q.** And the tumor volume ([8]; day 24, 10 injections, HepG2 nude mice)?
**A.** 284.19±85.47 mm^3

**Q.** What about the tumor weight ([8]; tumor peeled off at sacrifice) of the same compound?
**A.** 194.57 ± 75.45 mg
